Measured values as given in US11844806B2 (Asamedic AS, priority 2017, dated 2023).

Tests used:
[1] = pH of the solution after dissolution of ASA; type: physicochemical; conditions: for Measured pH of the solutions after dissolution of ASA: 300 mg ASA
Method: (§1) The cap comprising the powder compartment and the cutting element was assembled with the container comprising the solution.
(§2) The cap was then turned down until the seal keeping the powder and the solution separately was broken by the cutting element. […] The device was then shaken until all ASA was dissolved.
Further aqueous solutions of salts of phosphoric acid were prepared. These phosphoric acid salt solutions were prepared in order to test the dissolution time of ASA at different final pH values i.e. the pH in the final ASA solution that are to be taken by the patient. Thus, the amount (mg) of the salt of phosphoric acid to be used was calculated based on the final pH to be obtained (theoretically pH).
(§3) The solution was then shaken until all ASA was dissolved. A light-yellow coloring of the solution was observed.
(§4) After releasing the ASA and sodium carbonate into the water, the solution was shaken until all ASA was dissolved.

[2] = Dissolution of ASA on mixing with phosphate salt solution or water, shaken in the two component device; type: physicochemical
Method: as §1, §2, §3, §4

## CC(=O)Oc1ccccc1C(=O)O [ASA, acetylsalicylic acid]
[1]; 300 mg ASA and 258-263 mg Na2CO3 in 15 ml pure water, Example 7
  pH of the solutions after dissolution of ASA and the carbonate salt: 9.41-9.43
[1]; 422 mg Na3PO4•12H2O in 15 ml, theoretical pH 7.2
  Measured pH of the solutions after dissolution of ASA: 7.6
[1]; 474 mg Na2HPO4 in 15 ml, theoretical pH 7.2
  Measured pH of the solutions after dissolution of ASA: 7.0
[1]; 1730 mg Na2HPO4 in 15 ml, theoretical pH 8.0
  Measured pH of the solutions after dissolution of ASA: 7.7
[1]; 300 mg crushed ASA and 1000 mg crushed Na2HPO4 in 15 ml pure water, Example 3
  pH of the solution after dissolution of ASA and the hydrogen phosphate salt: 7
[1]; 304 mg ASA and 610 mg Na3PO4 in 15 ml pure water, Example 5
  pH of the solution after dissolution of ASA and the phosphate salt: 10.72
[2]; 300 mg ASA and 258-263 mg Na2CO3 released together into 15 ml pure water, test device, Example 7 (carbonate comparison)
  Time before ASA was dissolved: approx. 120 sec.
[2]; 300 mg ASA, 15 ml, pH in the final solution set between approximately 7 to 8 (summary of table 2)
  Time in which ASA is dissolved in the Na2HPO4 solutions: ≤ 25 s
[2]; 300 mg ASA, 15 ml, pH in the final solution set to approximately 7 (summary of table 3)
  Time in which ASA is dissolved in the Na3PO4.12H2O solution: ≤ 25 s
[2]; 300 mg crushed ASA and 1000 mg crushed Na2HPO4 released together into 15 ml pure water, test device, Example 3
  Time until all ASA was dissolved: ≤ 30 s
[2]; 304 mg ASA and 610 mg Na3PO4 released at the same time into 15 ml pure water, Example 5
  Time until all ASA was dissolved: ≤ 30 s
[2]; 422 mg (1.11 · 10^−3 mol) Na3PO4•12H2O in 15 ml, theoretical pH 7.2
  300 mg ASA in 15 ml solution dissolved within 25 seconds: yes
[2]; 474 mg (3.34 · 10^−3 mol) Na2HPO4 in 15 ml, theoretical pH 7.2
  300 mg ASA in 15 ml solution dissolved within 25 seconds: Yes
[2]; 950 mg (6.67 · 10^−3 mol) Na2HPO4 in 15 ml, theoretical pH 7.7
  300 mg ASA in 15 ml solution dissolved within 25 seconds: Yes
[2]; 1730 mg (1.21 · 10^−2 mol) Na2HPO4 in 15 ml, theoretical pH 8.0
  300 mg ASA in 15 ml solution dissolved within 25 seconds: Yes
